Results reported in ChEMBL document CHEMBL5390242, “Design, Synthesis, and Antitumor Efficacy of Substituted 2-Amino[1,2,4]triazolopyrimidines and Related Heterocycles as Dual Inhibitors for Microtubule Polymerization and Janus Kinase 2” (J Med Chem, 2023).
The source made the active and inactive calls. No cut-off for these calls is given here.

Experiments:
[1] = system: A549; assay: Induction of apoptosis in human A549 cells assessed as reduction of mitochondrial membrane potential at 5 to 20 nM incubated for 16 hrs by JC-1 staining based fluorescence microscopy; type: functional, cell-based; details: dose 5-20 nM
[2] = AUC (0 to infinity) in CD-1 mouse at 1 mg/kg,iv measured upto 24 hrs by HPLC-MS/MS analysis; type: ADME, organism-based; set-up: dose 1 mg/kg, time < 24 hrs, route iv; details: in vivo
[3] = MRT (0 to infinity) in CD-1 mouse at 1 mg/kg,iv measured upto 24 hrs by HPLC-MS/MS analysis; type: ADME, organism-based; details: in vivo
[4] = Cytotoxicity against human L02 cells assessed as cell growth inhibition incubated for 48 hrs by MTT assay; type: toxicity, cell-based
[5] = Cmax in CD-1 mouse assessed as Cmax of metabolite at 10 mg/kg,ip measured upto 24 hrs by HPLC-MS/MS analysis; type: ADME, organism-based; set-up: time < 24 hrs, dose 10 mg/kg, route ip; details: in vivo
[6] = Cytotoxicity against human ARPE-19 cells assessed as cell growth inhibition incubated for 48 hrs by MTT assay; type: toxicity, cell-based
[7] = Toxicity in Balb/c mouse xenografted with human A549 cells assessed as change in body weight at 50 mg/kg,ip administration measured after 31 days; type: organism-based; details: in vivo, 744 h, time 31 day
[8] = Antiproliferative activity against Chinese hamster CHO-K1 cells assessed as cell growth inhibition incubated for 48 hrs by MTT assay; type: toxicity, cell-based, Cricetulus griseus
[9] = Tmax in CD-1 mouse at 10 mg/kg,ip measured upto 24 hrs by HPLC-MS/MS analysis; type: ADME, organism-based; details: in vivo
[10] = system: A549; assay: Induction of apoptosis in human A549 cells assessed as increase in mitochondrial ROS level at 5 to 20 nM incubated for 16 hrs by MitoSOX red dye based fluorescence microscopy; type: functional, cell-based; details: dose 5-20 nM
[11] = Cytotoxicity against human HaCaT cells assessed as cell growth inhibition incubated for 48 hrs by MTT assay; type: toxicity, cell-based
[12] = Metabolic stability in mouse liver microsomes assessed as half life incubated for 10 mins in presence of NADPH by LC-MS/MS analysis; type: ADME, Microsome
[13] = system: HCT-8; assay: Antiproliferative activity against human HCT-8 cells assessed as cell growth inhibition incubated for 48 hrs by MTT assay; type: functional, cell-based; details: HCT-8, 48 h
[14] = system: A549; assay: Induction of mitochondrial membrane potential loss in human A549 cells by measuring green fluorescence at 10 nM incubated for 16 hrs by JC-1 staining based flow cytometry analysis (reference value: 0.7 %); type: functional
[15] = system: BXPC-3; assay: Antiproliferative activity against human BXPC-3 cells assessed as cell growth inhibition incubated for 48 hrs by MTT assay; type: functional, cell-based; details: BXPC-3, 48 h
[16] = Antiproliferative activity against human A549/DDP cells assessed as cell growth inhibition incubated for 48 hrs by MTT assay; type: functional, cell-based
[17] = Toxicity in Balb/c mouse xenografted with human A549 cells assessed as effect on lung morphology at 50 mg/kg,ip administration measured after 31 days by Hematoxylin-eosin staining based microscopy; type: organism-based; details: in vivo, 744 h, time 31 day
[18] = system: A549; assay: Induction of mitochondrial membrane potential loss in human A549 cells by measuring red fluorescence at 5 nM incubated for 16 hrs by JC-1 staining based flow cytometry analysis (reference value: 99.3 %); type: functional
[19] = system: HeLa; assay: Antiproliferative activity against human HeLa cells assessed as cell growth inhibition incubated for 48 hrs by MTT assay; type: functional, cell-based
[20] = target: Tyrosine-protein kinase JAK3 (Homo sapiens, UniProt P52333)
Description: Inhibition of JAK3 (unknown origin) using Poly-(Glu,Tyr 4:1) peptide as substrate in presence of ATP by ADP-Glo reagent based assay

[21] = system: A549; assay: Antitumor activity against human A549 cells xenografted in Balb/c mouse assessed as increase in tumor necrotic cells at 50 mg/kg,ip administration measured after 31 days by Hematoxylin-eosin staining based microscopy; type: functional, organism-based; details: time 31.0 day
[22] = Antiproliferative activity against Chinese hamster CHO cells assessed as cell growth inhibition incubated for 48 hrs by MTT assay; type: toxicity, cell-based, Cricetulus griseus
[23] = system: A549; assay: Induction of apoptosis in human A549 cells assessed as necrotic cells at 20 nM incubated for 24 hrs by Annexin V-FITC/PI staining based flow cytometry (reference value: 0.67 %); type: functional
[24] = system: A549; assay: Induction of apoptosis in human A549 cells at 5 uM incubated for 24 hrs by Annexin V-FITC/PI staining based flow cytometry; type: functional
[25] = Toxicity in Balb/c mouse xenografted with human A549 cells assessed as effect on liver morphology at 50 mg/kg,ip administration measured after 31 days by Hematoxylin-eosin staining based microscopy; type: organism-based; details: in vivo, 744 h, time 31 day
[26] = system: COLO 205; assay: Cytotoxicity against human COLO 205 cells assessed as cell growth inhibition incubated for 48 hrs by MTT assay; type: functional, cell-based; details: COLO 205, 48 h
[27] = system: MCF7; assay: cells; details: Homo sapiens, MCF7, 48 h
Description: Antiproliferative activity against human MCF7 cells assessed as cell growth inhibition incubated for 48 hrs by MTT assay

[28] = system: A549; assay: Induction of apoptosis in human A549 cells assessed as viable cells at 10 nM incubated for 24 hrs by Annexin V-FITC/PI staining based flow cytometry (reference value: 93 %); type: functional; details: read-out: Activity
[29] = target: Tyrosine-protein kinase JAK2 (Homo sapiens, UniProt O60674); assay: Inhibition of JAK2 (unknown origin) using Poly-(Glu,Tyr 4:1) peptide as substrate at 1 uM in presence of ATP by ADP-Glo reagent based assay relative to control
[30] = system: A549; assay: Induction of cell cycle arrest in human A549 cells assessed as accumulation of cells at G2/M phase at 5 nM incubated for 24 hrs by PI/RNase staining based flow cytometry analysis; type: functional
[31] = Cmax in CD-1 mouse at 1 mg/kg,iv measured upto 24 hrs by HPLC-MS/MS analysis; type: ADME, organism-based; set-up: dose 1 mg/kg, time < 24 hrs, route iv; details: in vivo
[32] = Oral bioavailability in CD-1 mouse assessed as Oral bioavailability of metabolite at 10 mg/kg,ip measured upto 24 hrs by HPLC-MS/MS analysis; type: ADME, organism-based; details: in vivo
[33] = Half life in CD-1 mouse at 1 mg/kg,iv measured upto 24 hrs by HPLC-MS/MS analysis; type: ADME, organism-based; details: in vivo
[34] = target: Tubulin (Homo sapiens) (UniProt P68371+Q9H4B7+P0DPH7+P68366+Q13509+Q71U36+P04350+Q3ZCM7+P07437+P68363+Q9BQE3+Q6PEY2+Q13885+Q9BVA1+Q9BUF5); assay: Disruption of microtubule assembly in human A549 cells at 0.1 uM incubated for 6 hrs by Hoechst33342 staining based immunofluorescence analysis; type: cell-based
[35] = system: A549; assay: Induction of mitochondrial membrane potential loss in human A549 cells by measuring green fluorescence at 5 nM incubated for 16 hrs by JC-1 staining based flow cytometry analysis (reference value: 0.7 %); type: functional
[36] = Toxicity in Balb/c mouse xenografted with human A549 cells assessed as effect on kidney morphology at 50 mg/kg,ip administration measured after 31 days by Hematoxylin-eosin staining based microscopy; type: organism-based; details: in vivo, 744 h, time 31 day
[37] = Oral bioavailability in CD-1 mouse at 10 mg/kg,ip measured upto 24 hrs by HPLC-MS/MS analysis; type: ADME, organism-based; details: in vivo
[38] = Antiproliferative activity against human HCT-8/VCR cells assessed as cell growth inhibition incubated for 48 hrs by MTT assay; type: functional, cell-based
[39] = system: A549; assay: Induction of cell cycle arrest in human A549 cells assessed as accumulation of cells at G2/M phase at 10 nM incubated for 24 hrs by PI/RNase staining based flow cytometry analysis; type: functional

Tyrosine-protein kinase JAK3, sequence (P52333 whole entry): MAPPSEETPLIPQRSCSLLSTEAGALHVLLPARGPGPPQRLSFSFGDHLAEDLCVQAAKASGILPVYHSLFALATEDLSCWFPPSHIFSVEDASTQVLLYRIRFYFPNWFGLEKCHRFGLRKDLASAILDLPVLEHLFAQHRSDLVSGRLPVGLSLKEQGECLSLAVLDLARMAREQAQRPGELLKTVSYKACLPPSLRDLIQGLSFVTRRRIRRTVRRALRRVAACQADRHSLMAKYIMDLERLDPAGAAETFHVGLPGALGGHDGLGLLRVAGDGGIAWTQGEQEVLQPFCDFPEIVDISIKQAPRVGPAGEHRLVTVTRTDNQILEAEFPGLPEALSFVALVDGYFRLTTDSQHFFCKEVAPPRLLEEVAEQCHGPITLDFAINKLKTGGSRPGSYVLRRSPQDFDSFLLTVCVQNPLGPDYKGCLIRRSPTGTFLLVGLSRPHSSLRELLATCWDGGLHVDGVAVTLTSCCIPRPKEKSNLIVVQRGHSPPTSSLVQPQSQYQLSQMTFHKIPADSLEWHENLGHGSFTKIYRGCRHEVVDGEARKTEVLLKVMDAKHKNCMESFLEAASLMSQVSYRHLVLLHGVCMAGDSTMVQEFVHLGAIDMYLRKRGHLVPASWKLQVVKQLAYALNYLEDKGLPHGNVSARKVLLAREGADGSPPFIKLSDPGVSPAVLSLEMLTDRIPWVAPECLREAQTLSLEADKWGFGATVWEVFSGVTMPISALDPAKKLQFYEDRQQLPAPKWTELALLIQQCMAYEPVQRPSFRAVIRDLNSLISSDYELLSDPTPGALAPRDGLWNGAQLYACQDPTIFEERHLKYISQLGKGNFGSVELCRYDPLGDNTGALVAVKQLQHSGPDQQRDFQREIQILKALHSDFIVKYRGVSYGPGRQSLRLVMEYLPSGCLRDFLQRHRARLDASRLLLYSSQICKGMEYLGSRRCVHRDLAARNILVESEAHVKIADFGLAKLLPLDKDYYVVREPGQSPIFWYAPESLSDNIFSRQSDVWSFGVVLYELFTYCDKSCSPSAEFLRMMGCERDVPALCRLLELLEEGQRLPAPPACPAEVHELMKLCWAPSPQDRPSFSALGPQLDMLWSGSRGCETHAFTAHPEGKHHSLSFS
Tyrosine-protein kinase JAK2, sequence (O60674 whole entry): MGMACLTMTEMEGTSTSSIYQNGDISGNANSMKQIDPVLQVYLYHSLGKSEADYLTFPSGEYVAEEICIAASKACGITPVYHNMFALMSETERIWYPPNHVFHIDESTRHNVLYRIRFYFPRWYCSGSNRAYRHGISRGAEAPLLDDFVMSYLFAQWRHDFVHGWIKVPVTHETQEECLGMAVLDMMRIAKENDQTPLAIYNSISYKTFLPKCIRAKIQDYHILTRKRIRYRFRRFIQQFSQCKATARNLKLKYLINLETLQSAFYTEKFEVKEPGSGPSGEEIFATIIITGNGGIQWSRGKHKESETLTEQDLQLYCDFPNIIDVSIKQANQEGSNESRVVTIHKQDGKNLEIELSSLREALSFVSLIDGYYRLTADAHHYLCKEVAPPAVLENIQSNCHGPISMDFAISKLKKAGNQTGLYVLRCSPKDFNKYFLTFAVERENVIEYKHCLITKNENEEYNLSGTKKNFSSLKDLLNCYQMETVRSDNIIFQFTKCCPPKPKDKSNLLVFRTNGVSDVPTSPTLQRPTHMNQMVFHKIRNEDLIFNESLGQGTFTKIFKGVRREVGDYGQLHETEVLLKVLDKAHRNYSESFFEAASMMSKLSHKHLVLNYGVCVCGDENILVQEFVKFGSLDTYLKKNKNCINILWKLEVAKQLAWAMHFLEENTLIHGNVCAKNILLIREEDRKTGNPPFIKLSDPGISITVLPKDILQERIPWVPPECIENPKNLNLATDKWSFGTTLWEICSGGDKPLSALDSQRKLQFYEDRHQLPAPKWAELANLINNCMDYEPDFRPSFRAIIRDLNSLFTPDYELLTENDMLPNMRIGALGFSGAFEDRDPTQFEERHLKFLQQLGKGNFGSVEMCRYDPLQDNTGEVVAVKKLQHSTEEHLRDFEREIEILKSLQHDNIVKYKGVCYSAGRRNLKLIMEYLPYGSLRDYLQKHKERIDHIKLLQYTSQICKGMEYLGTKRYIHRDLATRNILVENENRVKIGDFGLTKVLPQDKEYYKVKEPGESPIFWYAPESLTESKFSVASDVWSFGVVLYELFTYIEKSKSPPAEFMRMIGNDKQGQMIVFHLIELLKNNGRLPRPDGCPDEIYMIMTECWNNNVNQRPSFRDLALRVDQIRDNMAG

For `COc1cc(-c2nccc3nc(Nc4cccc5[nH]ccc45)nn23)cc(OC)c1OC`, which Activity [1] is on record?
The Activity was “Active”.

And the AUC(0-inf) [2]?
The AUC(0-inf) was 390 ng·h/mL.

What about the MRT inf [3] of the same compound?
Its MRT inf is 7.1 h.

And the IC50 at 48 h [4]?
The IC50 at 48 h was 339 nM.

And the Cmax [5]?
The Cmax was 700.2 ng/mL.

And the IC50 at 48 h [6]?
The IC50 at 48 h was 5030 nM.

What about the Activity [7] of the same compound?
The Activity was “Non-Toxic”.

And the IC50 at 48 h [8]?
The IC50 at 48 h was 130 nM.

What about the Tmax [9] of the same compound?
Its Tmax is 0.5 h.

What about the Activity [10] of the same compound?
The Activity was “Active”.

And the IC50 at 48 h [11]?
The IC50 at 48 h was 450 nM.

And the half-life [12]?
The half-life was 0.362 h.

And the IC50 [13]?
Its IC50 is 34 nM.

And the Activity [14]?
The Activity was 15.4%.

And the IC50 [15]?
Its IC50 is 11 nM.

What about the IC50 [16] of the same compound?
Its IC50 is 36 nM.

And the Activity [17]?
The Activity was “Non-Toxic”.

What about the Activity [18] of the same compound?
The Activity was 89.1%.

What about the IC50 [19] of the same compound?
Its IC50 is 15 nM.

What about the IC50 [20] of the same compound?
The IC50 was 12200 nM.

What about the Activity [21] of the same compound?
The Activity was “Active”.

What about the IC50 at 48 h [22] of the same compound?
The IC50 at 48 h was 24 nM.

What about the Activity [23] of the same compound?
The Activity was 5.26%.

And the Activity [24]?
Its Activity is 8.9%.

What about the Activity [25] of the same compound?
Its Activity is “Non-Toxic”.

And the IC50 [26]?
The IC50 was 12.1 nM.

What about the IC50 [27] of the same compound?
Its IC50 is 18 nM.

And the viability at 0.01 µM [28]?
Its viability at 0.01 µM is 55.4%.

What about the inhibition [29] of the same compound?
The inhibition was 97%.

And the Activity [30]?
Its Activity is 15.6%.

And the Cmax [31]?
The Cmax was 117 ng/mL.

What about the F [32] of the same compound?
The F was 69.7%.

What about the half-life [33] of the same compound?
Its half-life is 6 h.

And the Activity [34]?
The Activity was “Active”.

What about the Activity [35] of the same compound?
The Activity was 10.9%.

What about the Activity [36] of the same compound?
The Activity was “Non-Toxic”.

And the bioavailability [37]?
The bioavailability was 15.4%.

And the IC50 [38]?
Its IC50 is 49 nM.

And the Activity [39]?
The Activity was 32.9%.
